Source: BigSolDB 2.1

COC(=O)Nc1nc2ccccc2[nH]1
solubility (mole fraction)
Details	278.15 K	283.15 K	288.15 K	293.15 K	298.15 K	303.15 K	308.15 K	313.15 K	318.15 K	323.15 K
in ethanol	6.39e-06	1.05e-05	1.58e-05	2.3e-05	3.19e-05	4.34e-05	5.78e-05	7.66e-05	0.000101	0.000134
in methanol	3.19e-05	4e-05	5.2e-05	6.33e-05	7.77e-05	9.85e-05	0.000118	0.000143	0.000173	0.000201
in n-butanol	2.12e-06	3.75e-06	6.22e-06	9.84e-06	1.5e-05	2.28e-05	3.34e-05	5.07e-05	7.61e-05	0.000111
in n-pentanol	1e-06	2e-06	3.62e-06	6.19e-06	1.05e-05	1.69e-05	2.87e-05	4.55e-05	6.8e-05	0.000101
in n-propanol	3.3e-06	5.42e-06	8.66e-06	1.3e-05	1.89e-05	2.73e-05	3.92e-05	5.57e-05	8.38e-05	0.00012
